According to ChEMBL document CHEMBL2331217, “Evolvosides C–E, flavonol-4'-O-triglycosides from evolvulus alsinoides and their anti-stress activity [corrected]” (2013):

Assays:
Type in all cases: functional
[1] = tested on: Rattus norvegicus; assay: Anti-stress activity in Sprague-Dawley rat assessed as change in acute stress-induced plasma creatine kinase level at 40 mg/kg, po qd for 3 days prior to acute stress induction measured after 150 mins (reference value: 1018 +/- 31.43 mg/dl)
[2] = tested on: Rattus norvegicus; assay: Anti-stress activity in Sprague-Dawley rat assessed as change in acute stress-induced plasma corticosterone level at 40 mg/kg, po qd for 3 days prior to acute stress induction measured after 150 mins by HPLC/UV analysis (reference value: 511.2 +/- 23.2 ng/ml)
[3] = tested on: Rattus norvegicus; assay: Anti-stress activity in Sprague-Dawley rat assessed as change in acute stress-induced adrenal gland weight at 40 mg/kg, po qd for 3 days prior to acute stress induction measured after 150 mins (reference value: 10.2 +/- 0.84 mg/kg)
[4] = tested on: Rattus norvegicus; assay: Anti-stress activity in Sprague-Dawley rat assessed as change in acute stress-induced plasma glucose level at 40 mg/kg, po qd for 3 days prior to acute stress induction measured after 150 mins (reference value: 154.7 +/- 4.38 mg/dl)

| Compound | Activity [1] | Activity [2] | Activity [3] | Activity [4] |
| --- | --- | --- | --- | --- |
| COc1cc(OC)c2c(=O)c(O)c(-c3ccc(O[C@@H]4O[C@H](CO[C@@H]5O[C@@H](C)[C@H](O)[C@@H](O)[C@H]5O[C@@H]5O[C@H](CO)[C@@H](O)[C@H](O)[C@H]5O)[C@@H](O)[C@H](O)[C@H]4O)cc3)oc2c1 [EVOLVOSIDE E] | 413.7 mg/dL | 252.6 ng/mL |  |  |
| COc1cc(O)c2c(=O)c(O)c(-c3ccc(O[C@@H]4O[C@H](CO[C@@H]5O[C@@H](C)[C@H](O)[C@@H](O)[C@H]5O[C@@H]5O[C@H](CO)[C@@H](O)[C@H](O)[C@H]5O)[C@@H](O)[C@H](O)[C@H]4O)cc3)oc2c1 [EVOLVOSIDE D] | 405.4 mg/dL | 241.7 ng/mL | 8.23 mg/kg | 95.13 mg/dL |
| O=c1cc(-c2ccc(O)cc2)oc2c([C@@H]3O[C@H](CO)[C@@H](O)[C@H](O)[C@H]3O)c(O)cc(O)c12 | 822 mg/dL | 439 ng/mL | 9.78 mg/kg | 92.1 mg/dL |
| O=c1c(O)c(-c2ccc(O[C@@H]3O[C@H](CO)[C@@H](O)[C@H](O)[C@H]3O[C@@H]3O[C@H](CO)[C@@H](O)[C@H](O)[C@H]3O)cc2)oc2cc(O)cc(O)c12 | 1078 mg/dL | 458.2 ng/mL | 10.91 mg/kg | 113.1 mg/dL |
| C[C@@H]1O[C@@H](OC[C@H]2O[C@@H](Oc3ccc(-c4oc5cc(O)cc(O)c5c(=O)c4O)cc3)[C@H](O)[C@@H](O)[C@@H]2O)[C@H](O)[C@H](O)[C@H]1O | 521.4 mg/dL | 239.2 ng/mL | 8.47 mg/kg | 105.13 mg/dL |
| C[C@@H]1O[C@@H](OC[C@H]2O[C@@H](Oc3ccc(-c4oc5cc(O)cc(O)c5c(=O)c4O)cc3)[C@H](O)[C@@H](O)[C@@H]2O)[C@H](O[C@@H]2O[C@H](CO)[C@@H](O)[C@H](O)[C@H]2O)[C@H](O)[C@H]1O [EVOLVOSIDE C] | 385.3 mg/dL | 233.3 ng/mL | 7.11 mg/kg | 80.17 mg/dL |
